Laboratory results as given in patent US20260015409A1, “RECEPTOR-MEDIATED ENDOCYTOSIS FOR TARGETED INTERNALIZATION AND DEGRADATION OF MEMBRANE PROTEINS AND CARGOS” (Dana-Farber Cancer Institute, Inc., priority 2022, published 2026).
“Also recorded” adds a separate entry of the source. Where a SMILES comes first, the peptide text is derived from it. The star is where a group is joined. Cbz = O=C(OCc1ccccc1)*

Legend:
CD20 = molecular target: T1, CD20 (Homo sapiens, UniProt P11836); test: CD20 degradation in Raji cells; type: cell-based; conditions: Western blot
T1 construct: endogenous in cells; host or cells: Raji
T1 sequence (P11836 1-297): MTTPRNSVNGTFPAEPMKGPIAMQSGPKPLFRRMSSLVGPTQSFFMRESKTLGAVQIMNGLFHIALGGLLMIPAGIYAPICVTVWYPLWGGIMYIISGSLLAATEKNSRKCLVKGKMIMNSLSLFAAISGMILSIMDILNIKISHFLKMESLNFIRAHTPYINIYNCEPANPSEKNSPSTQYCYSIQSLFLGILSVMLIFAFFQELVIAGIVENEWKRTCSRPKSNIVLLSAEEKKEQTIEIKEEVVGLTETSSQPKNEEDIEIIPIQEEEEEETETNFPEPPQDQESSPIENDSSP
From the text: Cluster of differentiate 20 (CD20) is a B cell-specific surface marker with four transmembrane domains and an unknown function. Knocking down cell surface CD20s with a degrader can be valuable. A CD20-TransTAC was created using a Fab format of Rituximab, the first clinically approved CD20 antibody, to bind CD20.

EGFR = molecular target: T2, EGFR (Homo sapiens, UniProt P00533); test: EGFR degradation by Western blot in A549 lung carcinoma cells; type: cell-based; conditions: A549 cells treated with EGFR-TransTACs; 1 μM inhibitor
T2 construct: endogenous in cells; host or cells: A549
Protocol: Targeted therapy with tyrosine kinase inhibitors is a standard treatment for lung cancer with EGFR mutations. We reasoned that co-targeting an EGFR and a TfR receptor on lung cancer cells could lead to EGFR inhibition while maintaining high tumor specificity (FIG. 30A). We generated an anti-EGFR affibody*H7*GFLG-VR TransTAC. Incubation of the molecule with a human lung adenocarcinoma A549 cell line led to >90% EGFR degradation (FIG. 30B). […] This specificity results from higher TfR expression in tumor cells (FIG. 27A-C).
Next, we aimed to target epidermal growth factor receptor (EGFR), a receptor tyrosine kinase that plays an important role in the development and progression of various types of cancers such as lung and brain. An affibody (Friedman, Mikaela, et al. “Directed evolution to low nanomolar affinity of a tumor-targeting epidermal growth factor receptor-binding affibody molecule.” Journal of molecular biology 376.5, 2008: 1388-1402) was used to bind EGFR and create an EGFR-TransTAC.
We next investigated the cellular mechanism underlying TransTAC-mediated protein degradation. Two primary pathways involved in the degradation of cellular proteins were tested: the lysosomal pathway and the proteosome pathway. A549 cells were treated either with bafilomycin, a vacuolar proton pump inhibitor that inhibits lysosomal acidification, or MG132, a proteasomal inhibitor.

PC9-GR4 cells = test: MTT cell viability assay, PC9-GR4 cells; type: cell-based
PC9 GR4 C797S cells = test: MTT cell viability assay, PC9 GR4 C797S cells

T2 sequence (P00533 25-1210): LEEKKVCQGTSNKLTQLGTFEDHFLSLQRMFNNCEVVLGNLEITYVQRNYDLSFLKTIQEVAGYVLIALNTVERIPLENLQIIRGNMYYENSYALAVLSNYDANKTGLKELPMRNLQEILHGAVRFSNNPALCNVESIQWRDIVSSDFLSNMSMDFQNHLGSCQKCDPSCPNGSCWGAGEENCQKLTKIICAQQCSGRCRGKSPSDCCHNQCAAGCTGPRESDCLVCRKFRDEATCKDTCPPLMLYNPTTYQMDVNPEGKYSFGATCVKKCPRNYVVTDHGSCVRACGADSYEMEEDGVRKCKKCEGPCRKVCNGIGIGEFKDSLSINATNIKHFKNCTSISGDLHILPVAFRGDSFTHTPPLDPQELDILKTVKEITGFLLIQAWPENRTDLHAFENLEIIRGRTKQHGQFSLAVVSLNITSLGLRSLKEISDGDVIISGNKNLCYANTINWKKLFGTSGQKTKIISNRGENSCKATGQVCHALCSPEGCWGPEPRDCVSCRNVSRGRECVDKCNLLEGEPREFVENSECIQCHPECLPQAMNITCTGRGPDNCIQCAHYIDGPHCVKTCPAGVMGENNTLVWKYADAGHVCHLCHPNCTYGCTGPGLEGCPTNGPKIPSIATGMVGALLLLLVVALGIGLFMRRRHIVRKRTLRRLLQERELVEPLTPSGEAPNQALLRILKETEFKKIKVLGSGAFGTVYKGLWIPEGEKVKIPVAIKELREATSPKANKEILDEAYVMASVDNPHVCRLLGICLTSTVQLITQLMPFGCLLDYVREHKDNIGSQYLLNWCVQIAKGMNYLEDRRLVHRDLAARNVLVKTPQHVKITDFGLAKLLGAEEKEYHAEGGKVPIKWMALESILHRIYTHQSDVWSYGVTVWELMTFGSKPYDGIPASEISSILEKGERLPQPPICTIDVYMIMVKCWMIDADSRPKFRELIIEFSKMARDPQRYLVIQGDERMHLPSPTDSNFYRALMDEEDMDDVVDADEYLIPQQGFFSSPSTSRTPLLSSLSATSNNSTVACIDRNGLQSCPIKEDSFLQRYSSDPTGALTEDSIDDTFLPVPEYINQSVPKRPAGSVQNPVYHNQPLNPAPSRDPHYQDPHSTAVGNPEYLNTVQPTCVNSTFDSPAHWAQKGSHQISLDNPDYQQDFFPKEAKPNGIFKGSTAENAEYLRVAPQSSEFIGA

| IC50 (PC9-GR4 cells) | Molecule | effect of inhibitor on TransTAC-mediated EGFR degradation (EGFR) | further results |
| --- | --- | --- | --- |
| – | rituximab-scFv-Fc control: rituximab scFv-Fc control without TfR binder | – | CD20 degradation (CD20): does not lead to significant CD20 degradation |
| – | CC(C)C[C@@H](C=O)NC(=O)[C@H](CC(C)C)NC(=O)[C@H](CC(C)C)NC(=O)OCc1ccccc1 [MG132] (Cbz-Leu-Leu-Leu-aldehyde) | sensitive; also recorded: much less significant effect | – |
| 207 nM | C=CC(=O)Nc1cc(Nc2nccc(-c3cn(C)c4ccccc34)n2)c(OC)cc1N(C)CCN(C)C [osimertinib] | – | inhibition of cell viability (PC9 GR4 C797S cells): did not respond |
| – | CO/C1=C\C(C)=C\[C@@H](C)[C@@H](O)[C@@H](C)C/C(C)=C/C=C/[C@H](OC)[C@@H]([C@@H](C)[C@@H](O)[C@H](C)[C@@]2(O)C[C@@H](O)[C@H](C)[C@@H](C(C)C)O2)OC1=O [bafilomycin] | sensitive; also recorded: prevented TransTAC-mediated EGFR degradation; also recorded: fully inhibited | – |
| 168 nM | CN(C)C/C=C/C(=O)Nc1cc2c(Nc3ccc(F)c(Cl)c3)ncnc2cc1O[C@H]1CCOC1 [afatinib] | – | – |
